For 39 molecules, EC50 results are on record in patent publication US20240208907A1, “GPR52 MODULATORS AND METHODS OF USE” (Neurocrine Biosciences, Inc., priority 2021, published 2024).

Structures can show the parent of a compound that is named as a salt. A value given as a limit tells only on which side of the number the result lay.

This test deals with T1, recombinant human GPR52 (Homo sapiens, UniProt Q9Y2T5).
T1 construct: expressed in transfected cells
T1 sequence (Q9Y2T5 whole entry): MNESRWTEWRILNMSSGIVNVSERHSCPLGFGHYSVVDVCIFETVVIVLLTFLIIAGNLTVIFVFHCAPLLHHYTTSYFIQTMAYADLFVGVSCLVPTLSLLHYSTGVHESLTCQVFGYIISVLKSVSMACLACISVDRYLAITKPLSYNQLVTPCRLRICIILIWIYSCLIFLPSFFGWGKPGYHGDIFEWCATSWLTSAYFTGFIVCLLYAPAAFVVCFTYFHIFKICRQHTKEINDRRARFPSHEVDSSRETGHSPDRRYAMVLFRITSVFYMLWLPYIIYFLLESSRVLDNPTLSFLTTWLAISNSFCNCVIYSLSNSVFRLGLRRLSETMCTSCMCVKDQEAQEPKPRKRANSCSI
Description: GPR52 activity: TR-FRET cAMP assay (LANCE Ultra cAMP Kit). The class given is cell-based. The settings on record: Flp-In-CHO cells stably expressing recombinant human GPR52; cAMP production, normalized to positive control. The procedure: TR-FRET cAMP assays were performed using commercially available assay kits (LANCE™ Ultra cAMP Kit). Controls and compounds were solubilized in DMSO using ½ log dilution to generate duplicate 10-point dose response curves in 384-well polypropylene compound plates. Sixty nanoliters of the diluted compounds were transferred into 384-well NBS assay plates and further diluted to 1× with the addition of 2000 cells per well. Flp-In™-CHO cells that stably express recombinant human GPR52.
Cells were harvested with cell stripper and resuspended in Stimulation Buffer (5 mM HEPES, 0.1% bovine serum albumin (BSA), 0.5 mM IBMX, pH 7.4). After thirty minutes incubation at room temperature, detection reagents were added to each well. Plates were then incubated for 30 minutes at room temperature. The LANCE™ Ultra cAMP assay uses time-resolved fluorescence resonance energy transfer (TR-FRET) to detect cAMP production; this signal was quantified using a Pherastar multi-mode plate reader.
Dose-response curves were generated from the fluorescence counts normalized to the positive control. E EC50 values were obtained using a nonlinear regression curve-fitting program.
On the technique in general: Time-resolved FRET reads energy transfer from a long-lived donor to a nearby acceptor.
With `Cc1cc(-c2cc(Cc3cccc(C(F)(F)F)c3)ccn2)ccc1C(N)=O` [Compound 1, 2-methyl-4-(4-{[3-(trifluoromethyl)phenyl]methyl}pyridin-2-yl)benzamide], the concentration giving a half-maximal response (EC50) is < 25 nM. For `Cc1cc(-c2cc(Cc3cc(F)c(F)c(Cl)c3)ccn2)ccc1C(N)=O` [Compound 2, 4-{4-[(3-chloro-4,5-difluorophenyl)methyl]pyridin-2-yl}-2-methylbenzamide], the EC50 is < 25 nM. As for `Cc1cc(-c2cc(Cc3cc(F)cc(C#N)c3)ccn2)ccc1C(N)=O` [Compound 3, 4-{4-[(3-cyano-5-fluorophenyl)methyl]pyridin-2-yl}-2-methylbenzamide], the figure is < 25 nM; as for `COc1cc(Cc2ccnc(-c3ccc(C(N)=O)c(C)c3)c2)cc(F)c1F` [Compound 4, 4-{4-[(3,4-difluoro-5-methoxyphenyl)methyl]pyridin-2-yl}-2-methylbenzamide], < 25 nM. Turning to `CSc1cccc(Cc2ccnc(-c3ccc(C(N)=O)c(C)c3)c2)c1` [Compound 5, 2-methyl-4-(4-{[3-(methylsulfanyl)phenyl]methyl}pyridin-2-yl)benzamide], the concentration giving a half-maximal response (EC50) is < 25 nM. For `N#Cc1cc(Cc2ccnc(-c3ccc(C(N)=O)c(C(F)(F)F)c3)c2)cc(F)c1F` [Compound 6, 4-{4-[(3-cyano-4,5-difluorophenyl)methyl]pyridin-2-yl}-2-(trifluoromethyl)benzamide], the EC50 is < 25 nM. As to `Cc1cc(-c2cc(Cc3cc(F)c(F)c(C#N)c3)ccn2)ccc1C(N)=O` [Compound 7, 4-{4-[(3-cyano-4,5-difluorophenyl)methyl]pyridin-2-yl}-2-methylbenzamide], the EC50 lay in the range of 25 to 100 nM. Consider `Cc1cc(-c2cc(Cc3ccc(F)c(C#N)c3)ccn2)ccc1C(N)=O` [Compound 8, 4-{4-[(3-cyano-4-fluorophenyl)methyl]pyridin-2-yl}-2-methylbenzamide], for which the concentration for a half-maximal effect (EC50) was 25 to 100 nM.

Turning to `Cc1cc(-c2cc(Cc3cc(F)c(F)c(C#N)c3)c(F)cn2)ccc1C(N)=O` [Compound 9, 4-{4-[(3-cyano-4,5-difluorophenyl)methyl]-5-fluoropyridin-2-yl}-2-methylbenzamide], the concentration giving a half-maximal response (EC50) fell in the range of 25 to 100 nM.

For the molecule `Cc1cc(Cc2ccnc(-c3ccc(C(N)=O)cc3)c2)ccc1F` [Compound 10, 4-{4-[(4-fluoro-3-methylphenyl)methyl]pyridin-2-yl}benzamide], the EC50 was in the range of 25 to 100 nM. Next, `Cc1cc(-c2cc(Cc3cccc(S(C)(=O)=O)c3)ccn2)ccc1C(N)=O` [Compound 11, 4-{4-[(3-methanesulfonylphenyl)methyl]pyridin-2-yl}-2-methylbenzamide hydrochloride]: 25 to 100 nM.

`Cc1cc(-c2cccc(Cc3cccc(C(F)(F)F)c3)n2)ccc1C(N)=O` [Compound 12, 2-methyl-4-(6-{[3-(trifluoromethyl)phenyl]methyl}pyridin-2-yl)benzamide]: the concentration giving a half-maximal response (EC50) fell in the range of 25 to 100 nM. Consider `COc1cc(-c2cc(Cc3cc(F)c(F)c(C#N)c3)ccn2)ccc1C(N)=O` [Compound 13, 4-{4-[(3-cyano-4,5-difluorophenyl)methyl]pyridin-2-yl}-2-methoxybenzamide], for which the half-maximal effective concentration (EC50) lay in the range of 25 to 100 nM. For `NC(=O)c1ccc(-c2cc(Cc3cc(F)cc(C(F)(F)F)c3)ccn2)cc1` [Compound 14, 4-(4-{[3-fluoro-5-(trifluoromethyl)phenyl]methyl}pyridin-2-yl)benzamide], the 50% effective concentration (EC50) was in the range of 25 to 100 nM. `Cc1cc(-c2cc(Cc3cc(F)c(F)c(C#N)c3)ccn2)cc(F)c1C(N)=O` [Compound 15, 4-{4-[(3-cyano-4,5-difluorophenyl)methyl]pyridin-2-yl}-2-fluoro-6-methylbenzamide]: the EC50 was 25 to 100 nM.

As to `NC(=O)Cc1cccc(-c2cc(Cc3cccc(C(F)(F)F)c3)ccn2)c1` [Compound 16, 2-[3-(4-{[3-(trifluoromethyl)phenyl]methyl}pyridin-2-yl)phenyl]acetamide], the EC50 was 25 to 100 nM.

Turning to `NC(=O)c1cccc(-c2cc(Cc3cc(F)cc(C(F)(F)F)c3)ccn2)c1` [Compound 17, 3-(4-{[3-fluoro-5-(trifluoromethyl)phenyl]methyl}pyridin-2-yl)benzamide], the concentration for a half-maximal effect (EC50) lay within 25 to 100 nM. Consider `NC(=O)Cc1ccc(-c2cc(Cc3cccc(C(F)(F)F)c3)ccn2)cc1` [Compound 18, 2-[4-(4-{[3-(trifluoromethyl)phenyl]methyl}pyridin-2-yl)phenyl]acetamide], for which the EC50 lay within 25 to 100 nM. As for `Cc1cc(Cc2ccnc(-c3cccc(C(N)=O)c3)c2)ccc1F` [Compound 19, 3-{4-[(4-fluoro-3-methylphenyl)methyl]pyridin-2-yl}benzamide], the figure is 25 to 100 nM; as for `COc1ccc(Cc2ccnc(-c3ccc(C(N)=O)cc3)c2)cc1F` [Compound 20, 4-{4-[(3-fluoro-4-methoxyphenyl)methyl]pyridin-2-yl}benzamide], 101 to 1000 nM. Take `NC(=O)c1ccc(-c2cc(Cc3cc(F)cc(Cl)c3)ccn2)cc1` [Compound 21, 4-{4-[(3-chloro-5-fluorophenyl)methyl]pyridin-2-yl}benzamide]: the EC50 lay within 101 to 1000 nM.

As for `Cc1cc(F)cc(Cc2ccnc(-c3cccc(C(N)=O)c3)c2)c1` [Compound 22, 3-{4-[(3-fluoro-5-methylphenyl)methyl]pyridin-2-yl}benzamide], the EC50 is 101 to 1000 nM. As to `NC(=O)c1ccc(-c2cc(Cc3ccc(F)c(C(F)(F)F)c3)ccn2)cc1` [Compound 23, 4-(4-{[4-fluoro-3-(trifluoromethyl)phenyl]methyl}pyridin-2-yl)benzamide], the 50% effective concentration (EC50) lay in the range of 101 to 1000 nM. On to `N#Cc1cc(Cc2ccnc(-c3ccc(C(N)=O)c(F)c3)c2)cc(F)c1F` [Compound 24, 4-{4-[(3-cyano-4,5-difluorophenyl)methyl]pyridin-2-yl}-2-fluorobenzamide], for which the half-maximal effective concentration (EC50) lay within 101 to 1000 nM. Turning to `NC(=O)c1cccc(-c2cc(Cc3cc(F)cc(Cl)c3)ccn2)c1` [Compound 25, 3-{4-[(3-chloro-5-fluorophenyl)methyl]pyridin-2-yl}benzamide], the concentration for a half-maximal effect (EC50) lay within 101 to 1000 nM. On to `NC(=O)c1ccc(-c2cc(Cc3cccc(OC(F)(F)F)c3)ccn2)cc1` [Compound 26, 4-(4-{[3-(trifluoromethoxy)phenyl]methyl}pyridin-2-yl)benzamide], for which the EC50 fell in the range of 101 to 1000 nM. Regarding `CS(=O)(=O)c1cccc(Cc2ccnc(-c3ccc(C(N)=O)cc3)c2)c1` [Compound 27, 4-{4-[(3-methanesulfonylphenyl)methyl]pyridin-2-yl}benzamide], the EC50 fell in the range of 101 to 1000 nM. Regarding `Cc1cc(F)cc(Cc2ccnc(-c3ccc(C(N)=O)cc3)c2)c1` [Compound 28, 4-{4-[(3-fluoro-5-methylphenyl)methyl]pyridin-2-yl}benzamide], the EC50 fell in the range of 101 to 1000 nM. For the molecule `COc1ccc(Cc2ccnc(-c3cccc(C(N)=O)c3)c2)cc1F` [Compound 29, 3-{4-[(3-fluoro-4-methoxyphenyl)methyl]pyridin-2-yl}benzamide], the EC50 fell in the range of 101 to 1000 nM. As to `N#Cc1cc(Cc2ccnc(-c3ccc(C(N)=O)cc3)c2)cc(F)c1F` [Compound 30, 4-{4-[(3-cyano-4,5-difluorophenyl)methyl]pyridin-2-yl}benzamide hydrochloride], the EC50 was in the range of 101 to 1000 nM.

Take `Cc1cc(-c2cc(Cc3cccc(S(C)(=O)=O)c3)c(F)cn2)ccc1C(N)=O` [Compound 31, 4-{5-fluoro-4-[(3-methanesulfonylphenyl)methyl]pyridin-2-yl}-2-methylbenzamide hydrochloride]: the EC50 was 25 to 100 nM. Consider `N#Cc1cc(Cc2ccnc(-c3cccc(CC(N)=O)c3)c2)cc(F)c1F` [Compound 33, 2-(3-{4-[(3-cyano-4,5-difluorophenyl)methyl]pyridin-2-yl}phenyl)acetamide], for which the EC50 lay in the range of 101 to 1000 nM. For the molecule `Cc1cc(-c2cc(Cc3cccc(S(=O)(=O)C(F)(F)F)c3)ccn2)ccc1C(N)=O` [Compound 34, 2-methyl-4-{4-[(3-trifluoromethanesulfonylphenyl)methyl]pyridin-2-yl}benzamide hydrochloride], the EC50 was 101 to 1000 nM. As for `Cc1cc(-c2cc(Cc3cccc(C(F)(F)F)c3)ccn2)ccc1C(=O)N1CCNCC1` [Compound 35, 1-[2-methyl-4-(4-{[3-(trifluoromethyl)phenyl]methyl}pyridin-2-yl)benzoyl]piperazine hydrochloride], the figure is < 25 nM.

In the case of `Cc1cc(-c2cc(Cc3cccc(C(F)(F)F)c3)ccn2)ccc1C(=O)NCCO` [Compound 36, N-(2-hydroxyethyl)-2-methyl-4-(4-{[3-(trifluoromethyl)phenyl]methyl}pyridin-2-yl)benzamide], the EC50 is 25 to 100 nM. With `Cc1cc(-c2cc(Cc3cccc(C(F)(F)F)c3)ccn2)ccc1C(=O)NCCCO` [Compound 37, N-(3-hydroxypropyl)-2-methyl-4-(4-{[3-(trifluoromethyl)phenyl]methyl}pyridin-2-yl)benzamide], the EC50 is 25 to 100 nM. On to `N#Cc1cc(Cc2ccnc(-c3cccc(C(N)=O)c3)c2)cc(F)c1F` [Compound 38, 3-{4-[(3-cyano-4,5-difluorophenyl)methyl]pyridin-2-yl}benzamide], for which the EC50 was 101 to 1000 nM. As for `NC(=O)c1ccc(-c2cc(Cc3cc(C(F)(F)F)ccc3F)ccn2)cc1` [Compound 39, 4-(4-{[2-fluoro-5-(trifluoromethyl)phenyl]methyl}pyridin-2-yl)benzamide], the figure is 101 to 1000 nM; as for `N#Cc1cc(F)cc(Cc2ccnc(-c3ccc(C(N)=O)cc3)c2)c1` [Compound 40, 4-{4-[(3-cyano-5-fluorophenyl)methyl]pyridin-2-yl}benzamide], > 1000 nM.

The term EC50 denotes the concentration needed to bring the measured effect to its halfway point.
